{"source": "patent US20080020041A1", "about": "“Enteric Coated Compositions that Release Active Ingredient(s) in Gastric Fluid and Intestinal Fluid” (priority 2004, published 2008)", "key": {"[1]": {"method": "All data fittings were performed on data from immediate-release formulations using WinNonlin software, version 3.2 (Pharsight Corporation, Mountain View, Calif.)."}, "[2]": {"conditions": "fitted from available plasma data (PDR), used in simulations", "description": "These parameters are volume of distribution divided by fraction of dose absorbed (V/F), absorption rate constant (ka), and elimination rate constant (kel)."}, "[3]": {"conditions": "commercial mixed pellets, cited from earlier work"}, "[4]": {"experiment": "Hydrochlorothiazide bio-study: urinary excretion, urine output and side effects after IR or GRD", "assay_type": "in vivo, human", "conditions": "same dose, drug released in gastric fluid (GRD)"}, "[5]": {"conditions": "disintegrating tablets from pellets coated with cellulose acetate phthalate; cited from earlier work"}, "[6]": {"conditions": "prolonged release wax matrix formulation; cited from earlier work"}, "[7]": {"conditions": "60 mg immediate-release riboflavin, fed subjects; cited from earlier work"}, "[8]": {"conditions": "cited from earlier work"}, "[9]": {"conditions": "fitted to literature data of immediate-release formulation"}}, "note": "Where a name gives a salt, the structure may show the parent alone. Read-outs that look alike come from different tables or passages of the source.", "data": [{"smiles": "Cc1cc2nc3c(=O)[nH]c(=O)nc-3n(C[C@H](O)[C@H](O)[C@H](O)COP(=O)(O)O)c2cc1C", "note": "[Riboflavin-5-phosphate]", "values": [{"measurement": "absorption rate constant", "setting": "[1]; [9]", "value": 3.67}, {"measurement": "kel", "setting": "[1]; [9]", "value": 0.32, "unit": "h⁻¹"}]}, {"smiles": "C[C@H](N)Cc1ccccc1", "note": "[d-Amphetamine]", "values": [{"measurement": "ka", "setting": "[2]", "value": 0.744, "unit": "h⁻¹"}, {"measurement": "Observed Cmax", "setting": "[3]; Fasted, 30 mg", "value": 40.2, "unit": "ng/mL"}, {"measurement": "Observed Cmax", "setting": "[3]; Fed, 20 mg", "value": 25.3, "unit": "ng/mL"}]}, {"smiles": "NS(=O)(=O)c1cc2c(cc1Cl)NCNS2(=O)=O", "note": "[Hydrochlorothiazide]", "values": [{"measurement": "Adverse reactions reported", "setting": "[4]", "value": "No adverse reactions were reported"}]}, {"smiles": "Cc1cc(NS(=O)(=O)c2ccc(N)cc2)no1", "note": "[sulfametoxazole]", "values": [{"measurement": "Drug liberated within 2 hours in artificial gastric fluid", "setting": "[5]", "value": "more than 10%"}]}, {"smiles": "CNC(=C[N+](=O)[O-])NCCSCc1ccc(CN(C)C)o1", "note": "[Ranitidine hydrochloride]", "values": [{"measurement": "absorption rate constant", "setting": "[1]; human, in vivo", "value": 0.641}, {"measurement": "kel", "setting": "[1]; human, in vivo", "value": 0.239, "unit": "h⁻¹"}]}, {"smiles": "CC1(C)S[C@@H]2[C@H](NC(=O)[C@H](N)c3ccc(O)cc3)C(=O)N2[C@H]1C(=O)O", "note": "[amoxicillin]", "values": [{"measurement": "Amoxicillin released in 6 hours", "setting": "[6]", "value": 19, "unit": "%"}]}, {"smiles": "Cc1cc2nc3c(=O)[nH]c(=O)nc-3n(C[C@H](O)[C@H](O)[C@H](O)CO)c2cc1C", "note": "[riboflavin]", "values": [{"measurement": "Bioavailability", "setting": "[7]", "value": 36.4, "unit": "%"}]}, {"smiles": "CC(=O)Oc1ccc(C(c2ccc(OC(C)=O)cc2)c2ccccn2)cc1", "note": "[bisacodyl]", "values": [{"measurement": "Liberation of bisacodyl in 0.1 M HCl", "setting": "[8]; coating of mixture of Eudagrit L and Eudgrit NE", "value": "approximately 4 % w/w"}, {"measurement": "Liberation of bisacodyl in phosphate buffer within 45 min", "setting": "[8]; pH 6.8, polymer 1", "value": 100, "unit": "%"}, {"measurement": "Liberation of bisacodyl in phosphate buffer within 45 min", "setting": "[8]; pH 6.8, polymer 2", "value": 40, "unit": "%"}, {"measurement": "Liberation of bisacodyl in phosphate buffer", "setting": "[8]; pH 7.2, polymer 2", "value": 100, "unit": "%"}, {"measurement": "Bisacodyl liberated in acidic media after tableting", "setting": "[8]; pellets coated with 25% w/w of one of the new polymers", "value": "4-5 % w/w"}]}]}
